Literature values as cited in patent US20230330223A1, “TREATMENT OF HER2 NEGATIVE, MAMMAPRINT HIGH RISK 2 BREAST CANCER” (Agendia N.V., priority 2020, published 2023).

Test system: locally advanced breast cancer (Stage II/III)
Conditions: added to standard neoadjuvant chemotherapy; ERBB2-negative (HER2-negative) breast cancer

Q: With “pembrolizumab: immune check point inhibitor, PD1/PDL1 inhibitor antibody (Merck)” as the substance, how does the “estimated pCR rates, change versus standard chemotherapy” value read?
A: The value was “more than doubled”.
